For assay [1], the target named is T1, human CaSR (Homo sapiens, UniProt P41180).
T1 construct: TT cells are cell lines that express human CaSR; endogenous in cells; host or cells: TT cells (human medullary thyroid carcinoma cell line)
T1 sequence (P41180 20-1078): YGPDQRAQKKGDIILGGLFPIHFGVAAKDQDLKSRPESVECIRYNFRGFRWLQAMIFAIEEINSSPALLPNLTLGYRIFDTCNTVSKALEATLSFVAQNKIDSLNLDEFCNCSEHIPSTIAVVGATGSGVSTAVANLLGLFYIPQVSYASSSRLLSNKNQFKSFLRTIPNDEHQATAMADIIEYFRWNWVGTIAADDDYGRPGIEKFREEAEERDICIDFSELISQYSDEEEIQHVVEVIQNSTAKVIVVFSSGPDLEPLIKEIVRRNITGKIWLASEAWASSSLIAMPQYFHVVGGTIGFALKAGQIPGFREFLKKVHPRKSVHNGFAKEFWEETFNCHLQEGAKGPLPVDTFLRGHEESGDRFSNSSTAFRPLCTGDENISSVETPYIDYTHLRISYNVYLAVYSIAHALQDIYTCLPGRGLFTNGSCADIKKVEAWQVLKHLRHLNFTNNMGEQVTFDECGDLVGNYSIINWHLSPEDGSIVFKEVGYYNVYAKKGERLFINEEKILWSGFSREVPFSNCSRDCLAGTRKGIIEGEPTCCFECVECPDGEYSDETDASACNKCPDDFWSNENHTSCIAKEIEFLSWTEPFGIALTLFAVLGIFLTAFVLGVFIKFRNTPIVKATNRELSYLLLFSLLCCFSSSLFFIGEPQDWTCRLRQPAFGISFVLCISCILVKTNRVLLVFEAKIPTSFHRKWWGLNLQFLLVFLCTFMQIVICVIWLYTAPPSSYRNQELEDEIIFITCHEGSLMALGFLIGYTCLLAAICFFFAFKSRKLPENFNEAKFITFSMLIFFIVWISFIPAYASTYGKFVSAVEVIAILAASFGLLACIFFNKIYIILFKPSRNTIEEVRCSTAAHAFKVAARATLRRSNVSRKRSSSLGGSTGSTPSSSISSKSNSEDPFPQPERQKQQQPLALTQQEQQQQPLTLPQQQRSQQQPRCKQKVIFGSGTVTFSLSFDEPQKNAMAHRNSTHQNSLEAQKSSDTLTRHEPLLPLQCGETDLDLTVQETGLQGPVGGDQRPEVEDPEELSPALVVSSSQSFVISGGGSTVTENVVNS
As to the kind of experiment: Human CaSR activity measurement test (intracellular calcium in TT cells). It counts as cell-based. To be noted: [EC50 of test compound]/[EC50 of Compound A], intracellular calcium fluorescence. The method, then: It is reported that human medullary thyroid carcinoma cell lines TT cells are cell lines that express human CaSR, and when CaSR is activated by extracellular calcium ions or the like, intracellular calcium ion concentration increases (Endocrinology 137: 3842-3848, 1996). Accordingly, an activating action of the test compounds with respect to human CaSR was evaluated by using the change in intracellular calcium concentration of TT cells as an indicator. TT cells were inoculated onto a black well/clear bottom 96 well plate (poly-D-lysine coat: manufactured by BD biosciences), and were cultured for approximately 24 hours in a F-12 Nutrient Mixture (Kaighn's modification) culture media containing 10% calf serum and 0.5% antibiotic antimycotic. […] Then, the plate was allowed to stand for 1 hour at 37° C. Subsequently, the above-mentioned plate was placed onto FlexStation (manufactured by Molecular Device) or FlexStation 3 (manufactured by Molecular Device), and fluorescence intensity before and after treatment with the test compound dissolved in a buffer for measurement (126 mM NaCl, 4 mM KCl, 1 mM MgCl2, 20 mM HEPES (pH 7.4), 5.6 mM glucose, 2 mM CaCl2) was measured. […] Nagano, Pharmacol. […] WO 1996/12697) as a comparative compound, by conducting a similar procedure. From the following equation, the human CaSR activity of each of the test compounds was calculated as the relative activity with respect to Compound A. Relative activity with respect to Compound A=[EC50 of test compound]/[EC50 of Compound A]

Assay [2] deals with calcium ion concentration in the blood. As to the kind of experiment: Measurement test for concentration of parathyroid hormone and calcium ion in rat blood. It counts as in vivo. To be noted: read-out: reduction of calcium concentration in the blood. The method, then:
Three male SD rats (manufactured by Japan SLC, Inc.) were orally administered with the test compound, and effects on the concentration of parathyroid hormone (PTH) in the blood and concentration of the calcium ion in the blood were studied.
The test compound was administered by dissolving or suspending it in a 0.5% methyl cellulose 400 (MC) solution or 0.5% MC solution containing 10% of ethanol. (In addition, Compound A used in Test Example 1 was administered as a MC suspension by dosage of 30 mg/kg, and was studied as a comparative example.) Blood was collected from the jugular vein under anesthesia with halothane or isoflurane, before administration of the test compound, and 2, 4, 6 or 8 and 24 hours after administration. Calcium ion concentration in the blood was measured using cartridge EG7+(manufactured by Fuso Chemical Co., Ltd.) and i-STAT 300F (manufactured by Fuso Chemical Co., Ltd.). In addition, plasma intact PTH concentration was measured using Rat intact PTH ELISA kit (manufactured by Immutopics).
The transition of calcium ion concentration in the blood over time from before administration to 24 hours after administration of each of the test compounds was plotted, and the decrease in calcium ion concentration in the blood from the value before administration was calculated as an area value.

Where [3] appears, read: male SD rats, oral, 10 mg/kg, 4 hours after administration.
Setting [4] is: male SD rats, oral, 4 hours after administration.

Results on 14 compounds are retold here after patent US9133140B2, “Cycloalkylamne derivatives” (Daiichi Sankyo Company, Limited, priority 2008, dated 2015).

Where a name gives a salt, the structure may show the parent alone. Read-outs that look alike come from different tables or passages of the source. Bounds are passed on as bounds.

With `C[C@@H](N[C@H]1CC[C@@H](c2ccc(-c3nn[nH]n3)cc2)C1)c1cccc2ccccc12` [Example 3, (1S,3R)-N-[(1R)-1-(Naphthalen-1-yl)ethyl]-3-[4-(2H-tetrazol-5-yl)phenyl]cyclopentanamine hydrochloride], the “Relative activity with respect to Compound A” value (“Relative activity” below) in assay [1] came out at 0.18. Moreover, the inhibition in vivo at 10 mg/kg in assay [2] (setting [3]) is not below 30%.

Take `C[C@@H](N[C@H]1CC[C@@H](c2ccc(CC(=O)O)cc2)C1)c1ccc(F)c2ccccc12` [Example 25, {4-[(1R,3S)-3-{[(1R)-1-(4-Fluoronaphthalen-1-yl)ethyl]amino}cyclopentyl]phenyl}acetic acid hydrochloride]: the “Relative activity” value in assay [1] stood at 0.34. In assay [2] (setting [4]), the inhibition in vivo at 0.3 mg/kg is not below 20%. Also, the inhibition in vivo at 10 mg/kg in assay [2] (setting [3]) is not below 30%.

Regarding `C[C@@H](NC1CC[C@@H](c2ccc(OCC(=O)O)cc2)C1)c1ccc(F)c2ccccc12` (mixture of isomers) [Example 16, {4-[(1R)-3-{[(1R)-1-(4-Fluoronaphthalen-1-yl)ethyl]amino}cyclopentyl]phenoxy}acetic acid], the “Relative activity” value in assay [1] was found to be 0.72. Besides, the inhibition in vivo at 10 mg/kg in assay [2] (setting [3]) is not below 30%.

Regarding `C[C@@H](N[C@H]1CC[C@@H](c2ccc(OC(C)(C)C(=O)O)cc2)C1)c1ccc(F)c2ccccc12` [Example 31, 2-{4-[(1R,3S)-3-{[(1R)-1-(4-Fluoronaphthalen-1-yl)ethyl]amino}cyclopentyl]phenoxy}-2-methylpropanoic acid hydrochloride], the “Relative activity” value in assay [1] amounted to 0.36. In assay [2] (setting [4]), the inhibition in vivo at 0.3 mg/kg was not below 20%. In addition, the inhibition in vivo at 10 mg/kg in assay [2] (setting [3]) is not below 30%.

Take `C[C@@H](N[C@H]1CC[C@@H](c2ccc(OC(C)(C)C(=O)O)cc2)C1)c1cccc2ccccc12` [Example 11, 2-Methyl-2-{4-[(1R,3S)-3-{[(1R)-1-(naphthalen-1-yl)ethyl]amino}cyclopentyl]phenoxy}propanoic acid hydrochloride]: in assay [1], the “Relative activity” value was 0.60. The inhibition in vivo at 10 mg/kg in assay [2] (setting [3]) was not below 30%.

Turning to `C[C@@H](N[C@H]1CC[C@@H](c2ccc(OCC(=O)O)cc2)C1)c1ccc(F)c2ccccc12` [Example 17, {4-[(1R,3S)-3-{[(1R)-1-(4-Fluoronaphthalen-1-yl)ethyl]amino}cyclopentyl]phenoxy}acetic acid], in assay [1], the “Relative activity” value was 0.30. For the same compound, the inhibition in vivo at 0.3 mg/kg in assay [2] (setting [4]) was not below 20%. Also, in assay [2] (setting [3]), the inhibition in vivo at 10 mg/kg was not below 30%.

`C[C@@H](NC1CC[C@@H](c2ccc(OCC(=O)O)cc2)C1)c1cccc2cc(F)ccc12` (stereo partly drawn) [Example 21, {4-[(1R)-3-{[(1R)-1-(6-Fluoronaphthalen-1-yl)ethyl]amino}cyclopentyl]phenoxy}acetic acid]: the “Relative activity” value in assay [1] was 0.38. Moreover, the inhibition in vivo at 10 mg/kg in assay [2] (setting [3]) is not below 30%.

In the case of `C[C@@H](N[C@H]1CC[C@@H](c2ccc(NCCC(=O)O)cc2)C1)c1cccc2ccccc12` [Example 34, N-{4-[(1R,3S)-3-{[(1R)-1-(Naphthalen-1-yl)ethyl]amino}cyclopentyl]phenyl}-β-alanine 0.5 hydrochloride], in assay [1], the “Relative activity” value is 0.26. In assay [2] (po, 4 h), the inhibition in vivo at 10 mg/kg was not below 30%.

Regarding `C[C@@H](N[C@H]1CC[C@@H](c2ccc(CCC(=O)O)cc2)C1)c1ccc(F)c2ccccc12` [Example 27, 3-{4-[(1R,3S)-3-{[(1R)-1-(4-Fluoronaphthalen-1-yl)ethyl]amino}cyclopentyl]phenyl}propanoic acid hydrochloride], in assay [1], the “Relative activity” value is recorded as 0.59. In addition, in assay [2] (setting [4]), the inhibition in vivo at 0.3 mg/kg is not below 20%.

As to `C[C@@H](N[C@H]1CC[C@@H](c2ccc(CC(=O)O)cc2)C1)c1cccc2ccccc12` [Example 8, {4-[(1R,3S)-3-{[(1R)-1-(Naphthalen-1-yl)ethyl]amino}cyclopentyl]phenyl}acetic acid hydrochloride], the “Relative activity” value in assay [1] is 0.61. For the same compound, the inhibition in vivo at 10 mg/kg in assay [2] (setting [3]) was not below 30%.

`C[C@@H](N[C@H]1CC[C@H](c2ccc(CCC(=O)O)cc2)C1)c1ccc(F)c2ccccc12` [Example 30, 3-{4-[(1S,3S)-3-{[(1R)-1-(4-Fluoronaphthalen-1-yl)ethyl]amino}cyclopentyl]phenyl}propanoic acid hydrochloride]: the “Relative activity” value in assay [1] amounted to 0.31. For the same compound, the inhibition in vivo at 0.3 mg/kg in assay [2] (setting [4]) is not below 20%.

For `C[C@@H](N[C@H]1CC[C@@H](c2ccc(OC(C)(C)C(=O)O)c(F)c2)C1)c1cccc2ccccc12` [Example 15, 2-{2-Fluoro-4-[(1R,3S)-3-{[(1R)-1-(naphthalen-1-yl)ethyl]amino}cyclopentyl]phenoxy}-2-methylpropanoic acid hydrochloride], the “Relative activity” value in assay [1] is reported as 0.38. Moreover, the inhibition in vivo at 10 mg/kg in assay [2] (setting [3]) is not below 30%.

For the compound `C[C@@H](N[C@H]1CC[C@@H](c2ccc(SCC(=O)O)cc2)C1)c1cccc2ccccc12` [Example 36, ({4-[(1R,3S)-3-{[(1R)-1-(Naphthalen-1-yl)ethyl]amino}cyclopentyl]phenyl}thio)acetic acid hydrochloride], the “Relative activity” value in assay [1] came out at 0.15. For the same compound, in assay [2] (setting [3]), the inhibition in vivo at 10 mg/kg was not below 30%.

As for `C[C@@H](N[C@H]1CC[C@@H](c2ccc(NCC(=O)O)cc2)C1)c1cccc2ccccc12` [Example 33, N-{4-[(1R,3S)-3-{[(1R)-1-(Naphthalen-1-yl)ethyl]amino}cyclopentyl]phenyl}glycine 0.4 hydrochloride], the “Relative activity” value in assay [1] was 0.23. Further, in assay [2] (po, 4 h), the inhibition in vivo at 10 mg/kg was not below 30%.
